PMC4153677, “Probing the Activity Modification Space of the Cysteine Peptidase Cathepsin K with Novel Allosteric Modifiers” (PLoS ONE, 2014)
Where two headings read alike, the source gives them in different places.

Tests used:
[1] = target: T1, Recombinant human cathepsin K (Homo sapiens, UniProt P43235); test: Thermal stability of cathepsin K at pH 7.4 in the presence of modifiers; type: biochemical
T1 construct: made in house
T1 sequence (P43235 115-329): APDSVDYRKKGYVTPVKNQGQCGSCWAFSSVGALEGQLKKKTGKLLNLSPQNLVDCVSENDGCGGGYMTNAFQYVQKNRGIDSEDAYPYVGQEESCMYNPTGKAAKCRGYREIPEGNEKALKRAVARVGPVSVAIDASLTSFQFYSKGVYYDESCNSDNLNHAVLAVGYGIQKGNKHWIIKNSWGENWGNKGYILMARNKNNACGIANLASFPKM
Experimental: Cathepsin K was incubated at 37°C in 50 mM Hepes buffer pH 7.40 containing 1 mM EDTA and 5 mM DTT in the presence or absence of each modifier. The final enzyme concentration was 0.2 µM and final compounds concentrations were 2 mM, except compound 2, which was used at a concentration of 1 mM. All experiments were performed in Eppendorf Protein LoBind Tubes to minimize the adsorption of proteins on tube walls. Aliquots were withdrawn from the reaction mixtures at regular time intervals and their residual activity measured using the substrate Z-FR↓AMC (5 µM final concentration). Inactivation curves had exponential profiles that were fitted with the mathematical model for one-phase exponential decay to determine the half-life of the enzyme in each reaction mixture.

[2] = Solubility in aqueous buffers; type: physicochemical; details: aqueous buffer, kinetic from dmso stock
Experimental: Recombinant human cathepsin K was prepared as described previously. Chemical probes were obtained from the U.S. NCI/DTP Open Chemical Repository or from ChemBridge (USA). All compounds were soluble in aqueous buffers at concentrations of at least 2 mM, except for compound 2, which was soluble up to a maximal concentration of 1 mM. Stock solutions of all compounds were prepared in DMSO. The fluorogenic substrate Z-FR↓AMC (benzyloxycarbonyl-Phe-Arg-7-amino-4-methylcoumarin) was from Bachem (Switzerland).

[3] = target: T1, Recombinant human cathepsin K; test: Collagenolytic assays (calf skin collagen, SDS-PAGE); type: biochemical; parameters: key to collagen: qualitative value: qualitative values of 1 and 0 were used to signify inhibition and lack thereof, respectively; qualitative values of 1 and 0 were used to signify inhibition and lack thereof, respectively; a value of -1 was used to describe the concentration-dependent roles of glycosaminoglycans
Experimental: The use of synthetic substrates is practical for the determination of the mechanisms of modification. […] Therefore, all modifiers were also tested with two macromolecular substrates, calf skin collagen and azocasein. The collagenolytic activity was tested quantitatively by following the fragmentation of the characteristic type I collagen pattern into smaller products on SDS-PAGE after incubation of the samples with cathepsin K in the presence and absence of modifiers.
Soluble calf skin collagen (Worthington Biochemical Corporation, USA) was diluted in 100 mM sodium acetate buffer pH 5.50 containing 1 mM EDTA and 5 mM DTT to a final concentration of 0.5 mg/ml. Experiments were started by addition of cathepsin K (final enzyme concentration 0.6 µM) to the reaction mixture containing collagen and increasing concentrations of modifier. All assays were performed at 28°C with shaking on an Eppendorf Thermomixer Comfort. Samples were incubated for 2 hours and the reactions then blocked by addition of E-64 to a final concentration of 1 µM. 10 µg of digested collagen were analyzed by SDS-PAGE on 8% polyacrylamide gels and protein bands visualized by Coomassie Brilliant Blue R-250 staining.

[4] = target: T1, Recombinant human cathepsin K; test: Azocasein degradation assays; type: biochemical; details: pH 5.5; substrate azocasein 3 mg/ml; 0.1 µM cathepsin K, 30 min 37°C, pH 5.50; compounds up to 2 mM (compound 2: 1 mM); read-out: Residual activity
Source text: Figure 4 Effect of modifiers on the degradation of macromolecular substrates. (A) Effect of increasing concentrations of compounds 1 and 2 on the degradation of calf skin collagen. Molecular mass standards are given in kDa and positions of α, β and γ chains of intact collagen are marked by arrows. (B) Effect of modifiers on azocasein degradation. (C) Effect of glycosaminoglycans and clusterin on azocasein degradation. Two different concentrations of each glycosaminoglycan were used in the experiments (10 µg/ml and 200 µg/ml). Error bars in panels B and C represent the SEM of three experiments. All experiments were performed in 100 mM sodium acetate buffer pH 5.50 containing 1 mM EDTA and 5 mM DTT, as described in detail in the Materials and Methods section. Abbreviations: CPD – compound, CS – chondroitin sulfate, DS – dermatan sulfate, HP – heparin.
Azocasein (Sigma-Aldrich, USA) was dissolved in 100 mM sodium acetate buffer pH 5.50 containing 1 mM EDTA and 5 mM DTT at a concentration of 3 mg/ml. Samples were incubated with 0.1 µM cathepsin K for 30 min at 37°C in the presence of each compound. […] Reactions were stopped by addition of trichloroacetic acid (final concentration 5% v/v), centrifuged, clear supernatants mixed with 0.5 M NaOH and the concentrations of solubilized peptides determined by measuring the absorbance at 440 nm. All experiments were performed in triplicates and appropriate blanks were run to take into account the absorption of azocasein and compounds alone. IC 50 values were determined as described previously.

- stability: ln(sf), sf = ratio of half-lives in the presence and absence of modifier ([1]; 37 °C and pH 7.4): 0.79
- Increase of stability (half-life) of cathepsin K ([1]; pH 7.4, 37°C, versus enzyme only): about 2 fold
- solubility [2]: ≤ 1000 µM
- collagen: qualitative value ([3]; activity modification matrix): 1
- IC50 ([3]; degradation of calf skin collagen, read-out: IC 50 (estimated)): ~500 µM
- IC50 ([3]; substrate calf skin collagen 0.5 mg/ml, 0.6 µM cathepsin K, 2 hours 28°C, pH 5.50, estimated, read-out: IC 50): 500 µM
- remaining activity [4]: 93 ± 7%
Compound: OC(c1cc(-c2ccc(C(F)(F)F)cc2)nc(C(F)(F)F)c1)C1CCCCN1 (centres unmarked) [Compound 2, Piperidin-2-yl-[2-(trifluoromethyl)-6-[4-(trifluoromethyl)phenyl]pyridin-4-yl] methanol]
- Effect on degradation of calf skin collagen ([3]; SDS-PAGE, increasing concentrations of modifier): concentration-dependent inhibitory effect
